Laboratory results as given in patent US20240207421A1, “NERVE TARGETING PEPTIDES AND METHODS OF USE” (ALUME BIOSCIENCES, INC., priority 2020, published 2024).

The substances below were run on Laminin 421/521 (assay: Phage display library screening (Example 2), NEB laminin-binding peptides). Conditions: Laminin 421/521, not 211 and 411; combined unique sequence count, Python/R script analysis.
Set-up: species or system human
Method: Phage display library screens were used to identify peptides that bind to target proteins (including specific laminin trimers) that are expressed in human nerves, as described in Table 3. These screens were also carried out to identify peptides that could bind selectively to nerves versus muscle. Such peptides could therefore be useful for systemic in-vivo labeling of nerves during fluorescence assisted surgery. Specifically, m 13 phage libraries expressing 7 or 12 random amino acid peptides, or a cyclic peptide CX7C, on the N-terminus of the minor coat protein pIII (New England Biolabs; NEB) were processed through multiple rounds of selection for binding to target proteins expressed in nerves, or to excised human nerves, nerve extracts, or muscle, as described further below.
For screening against the specified target proteins in Table 1, including LN211, LN411, LN421, and LN521, the phage library was processed by up to 4 binding and wash cycles. For selection, phage libraries were incubated for up to 24 hours at 4° C. in 96 well plates that had been coated with one of the target proteins. Plates were then washed with PBS and phage were eluted using 0.2M glycine pH 2.0. Phage supernatants where then neutralized with Tris pH 9.0 prior to plating on TGI bacteria and LB agar plates. Colonies were counted to determine titer followed by DNA preparation of pools of phage and NextGen sequencing. After rounds of selection, phage were pooled and amplified for iterative selection. Phage that were bound at each round were sequenced. NextGen sequencing of pools after 2, 3 and 4 rounds of selection was used to isolate candidate sequences that were analyzed further to identify those that specifically bound each unique target protein.
For all NEB sequence datasets, a python script was used to translate, trim, and filter the peptide sequences (see details above). A python script was used to group peptides from different assays according to laminin complex binding (laminin complex 211, 411, 421, or 521) and combine the unique sequence counts for each peptide. An R script was written to merge the peptide sequences from different data files and determine peptides that specifically bind one laminin complex and not the others, or that bind both laminin 421 and 521 but not 211 and 411.

Row | Substance | Count
1 | SGWEGKTHQGVR (Laminin 421/521-binding peptide) | 69
2 | GFADVIHRKWSS (Laminin 421/521-binding peptide) | 53
3 | VPSYILR (Laminin 421/521-binding peptide) | 30
4 | HQSLAGVPWSRH (Laminin 421/521-binding peptide) | 53
5 | ADMPQMTLKYGV (Laminin 421/521-binding peptide) | 47
6 | AKTQAPSNWSGV (Laminin 421/521-binding peptide) | 43
7 | QGWEFQVPARHS (Laminin 421/521-binding peptide) | 30
8 | HQSVTGVRSHFH (Laminin 421/521-binding peptide) | 27
9 | EYWHQRGSWFHR (Laminin 421/521-binding peptide) | 55
10 | VPQIRIK (Laminin 421/521-binding peptide) | 47
11 | CHRTYNSTC (Laminin 421/521-binding peptide) | 46
12 | SYDGTMLKQVRL (Laminin 421/521-binding peptide) | 36
13 | GDLLLKR (Laminin 421/521-binding peptide) | 47
14 | AQGVWWSEWFAP (Laminin 421/521-binding peptide) | 42
15 | CFQPKMNSC (Laminin 421/521-binding peptide) | 42
16 | TKGIAPK (Laminin 421/521-binding peptide) | 28
17 | VIADQSKSAVAV (Laminin 421/521-binding peptide) | 27
18 | AHAAGRDMRQGT (Laminin 421/521-binding peptide) | 36
19 | CQGWPRPMC (Laminin 421/521-binding peptide) | 30
20 | WGLKLPH (Laminin 421/521-binding peptide) | 117
21 | AVYPLDLGAGMR (Laminin 421/521-binding peptide) | 46
22 | GEPLTRFPNSDS (Laminin 421/521-binding peptide) | 52
23 | CTSSSHQTC (Laminin 421/521-binding peptide) | 28
24 | QTFHEYLNPARG (Laminin 421/521-binding peptide) | 37
25 | QGHPFIY (Laminin 421/521-binding peptide) | 40
26 | KALGYSLVGGEW (Laminin 421/521-binding peptide) | 134
27 | WTKHNTPAHHLS (Laminin 421/521-binding peptide) | 89

Row | Substance | Count
28 | SDRGKTVLHGQI (Laminin 421/521-binding peptide) | 54
29 | QLQHVHL (Laminin 421/521-binding peptide) | 28
30 | GWTSDLSRNVRG (Laminin 421/521-binding peptide) | 28
31 | SWHFTGTPFMNR (Laminin 421/521-binding peptide) | 28
32 | CLHNGQRSC (Laminin 421/521-binding peptide) | 37
33 | RAQAHQV (Laminin 421/521-binding peptide) | 51
34 | HPAWADFFTMSS (Laminin 421/521-binding peptide) | 29
35 | TFAAAQAELIMV (Laminin 421/521-binding peptide) | 38
36 | AWNGNRS (Laminin 421/521-binding peptide) | 47
37 | HASNQRV (Laminin 421/521-binding peptide) | 93
38 | GYDLSRLWGMAS (Laminin 421/521-binding peptide) | 39
39 | CTSKLARHC (Laminin 421/521-binding peptide) | 45
40 | DGQVSDHSYVQW (Laminin 421/521-binding peptide) | 101
41 | EAVSTQI (Laminin 421/521-binding peptide) | 27
42 | ATSKYPNSWAQT (Laminin 421/521-binding peptide) | 80
43 | TTLWLDRDEALK (Laminin 421/521-binding peptide) | 27
44 | DGANMENIAPAN | 27
45 | ALPWQSGVHGTK (Laminin 421/521-binding peptide) | 34
46 | SWQMRSY (Laminin 421/521-binding peptide) | 48
47 | RALDRYLPWSPH (Laminin 421/521-binding peptide) | 28
48 | WGWNGANMSPRG (Laminin 421/521-binding peptide) | 31
49 | MTHSAHNSQKTN (Laminin 421/521-binding peptide) | 117
50 | DIMKSPRSNLRS (Laminin 421/521-binding peptide) | 37
51 | CLNQKWEAC (Laminin 421/521-binding peptide) | 64
52 | WDLPTLRKTKQA (Laminin 421/521-binding peptide) | 114
53 | CTPRSATLC (Laminin 421/521-binding peptide) | 37
54 | IDLSLRS (Laminin 421/521-binding peptide) | 29

Row | Substance | Count
55 | GKPDHRLVSLWR (Laminin 421/521-binding peptide) | 309
56 | AVRPLGLPDNHR (Laminin 421/521-binding peptide) | 29
57 | CSRAGLSAC (Laminin 421/521-binding peptide) | 30
58 | LLAGPFR (Laminin 421/521-binding peptide) | 44
59 | SLPYAASLNSVE (Laminin 421/521-binding peptide) | 28
60 | EYVKFSHSPRTY (Laminin 421/521-binding peptide) | 31
61 | LGSSRSPSSFLG (Laminin 421/521-binding peptide) | 29
62 | GIVPSRHTTGLG (Laminin 421/521-binding peptide) | 28
63 | DSLYRGMHQPRI (Laminin 421/521-binding peptide) | 29
64 | SLNTTWVSPMMK (Laminin 421/521-binding peptide) | 37
65 | AWVEAQNASNPS (Laminin 421/521-binding peptide) | 160
66 | CIGGPHRNC (Laminin 421/521-binding peptide) | 29
67 | TAPRWTQ (Laminin 421/521-binding peptide) | 30
68 | LGYGQGTPHRSN (Laminin 421/521-binding peptide) | 30
69 | DRLTPITWDWSR (Laminin 421/521-binding peptide) | 86
70 | GGGYHIFGPLVT (Laminin 421/521-binding peptide) | 43
71 | SLAVANTRFMIR (Laminin 421/521-binding peptide) | 49
72 | CKSPIKGTC (Laminin 421/521-binding peptide) | 27
73 | CGITQTTTC (Laminin 421/521-binding peptide) | 55
74 | QTRWDDGSYQIS (Laminin 421/521-binding peptide) | 49
75 | WAYTDYM (Laminin 421/521-binding peptide) | 35
76 | ALGGEPRKAYQR (Laminin 421/521-binding peptide) | 45
77 | ALKIGPETTIYM (Laminin 421/521-binding peptide) | 35
78 | GHPWTEIDFMSS (Laminin 421/521-binding peptide) | 50
79 | ANRYLAS (Laminin 421/521-binding peptide) | 40
